Several values for one entry are separate records, joined by “and”; a condition that tells them apart may be missing. Equal entries are not always repeated. Where two headings read alike, the source gives them in different places.
Key:
[1] = test system: other enzymes transforming organic acids or structurally related compounds; set-up: method as in Artiukhov et al., 2020; settings: ref Artiukhov et al., 2020; cited from earlier work
[2] = target: T1, OADH (Rattus norvegicus, UniProt Q4KLP0); assay: OADH reaction catalyzed by the enzyme preparation from rat liver, low [OA] (high-affinity OA sites); format: biochemical; settings: for Ki / Amax: OADH reaction, liver; for Amax: high-affinity sites
T1 sequence (Q4KLP0 45-920 limits assumed): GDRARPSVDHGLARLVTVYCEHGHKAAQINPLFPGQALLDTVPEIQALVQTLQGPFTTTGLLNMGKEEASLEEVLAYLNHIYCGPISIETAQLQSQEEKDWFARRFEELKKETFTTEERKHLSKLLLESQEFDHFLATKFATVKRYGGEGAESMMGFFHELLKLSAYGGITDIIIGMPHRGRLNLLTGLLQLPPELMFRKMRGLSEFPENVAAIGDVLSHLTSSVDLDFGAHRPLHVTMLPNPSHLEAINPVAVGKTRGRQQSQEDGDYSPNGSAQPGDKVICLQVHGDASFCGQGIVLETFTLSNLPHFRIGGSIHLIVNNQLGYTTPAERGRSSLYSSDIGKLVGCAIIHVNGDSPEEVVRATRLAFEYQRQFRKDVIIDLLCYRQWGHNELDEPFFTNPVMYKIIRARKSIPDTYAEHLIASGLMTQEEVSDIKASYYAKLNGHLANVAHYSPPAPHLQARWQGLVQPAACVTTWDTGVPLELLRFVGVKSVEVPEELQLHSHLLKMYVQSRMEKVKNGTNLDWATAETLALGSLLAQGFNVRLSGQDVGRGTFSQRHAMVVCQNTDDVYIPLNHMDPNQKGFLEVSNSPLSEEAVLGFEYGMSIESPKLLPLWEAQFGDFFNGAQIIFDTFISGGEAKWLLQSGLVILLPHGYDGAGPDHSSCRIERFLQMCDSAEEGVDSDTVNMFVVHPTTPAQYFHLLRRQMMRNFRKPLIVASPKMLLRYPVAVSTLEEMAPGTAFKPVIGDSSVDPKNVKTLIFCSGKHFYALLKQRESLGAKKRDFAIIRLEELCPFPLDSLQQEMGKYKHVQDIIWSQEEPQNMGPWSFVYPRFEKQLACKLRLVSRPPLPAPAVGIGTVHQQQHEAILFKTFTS
Method: Enzymes catalyzing OGDH and OADH reactions were enriched from rat hearts and livers using polyethylene glycol precipitation, as previously described (Artiukhov et al., [2020]).
The enzyme activities were assayed in the medium (pH 7.0) containing 50 mM MOPS, 1 mM ThDP, 1 mM MgCl2, 1 mM CaCl2, 1 mM dithiothreitol 0.15 mM Coenzyme A, 0.25 mM NAD^+ and various concentrations of 2-oxo substrates (0–10 mM OG or OA) and their phosphonate analogs (0–5,000 μM SP, GP, or AP). Reactions were started by addition of the enzyme preparations to the assay media. The amount of enzyme preparations (0.074 mg protein for the preparation from liver and 0.023 mg protein for the preparation from heart) were chosen to induce the lowest reliably measured reaction rate (ΔA340 = 0.001/min) at 0.01 mM OA without the phosphonates.
Reaction rates were calculated from linear parts of the product accumulation curves (up to 10 min, dependent on the reaction rate), excluding the initial region, where mixing the reagents and solubilization of the preparation affected the optical density.
Non-linear regression was used to approximate the experimental dependences of the reaction rates on the OG or OA concentration according to the Michaelis-Menten equation ( a=Amax*[S]/Km+[S] ) or its sum ( a=Amax*[S]/Km+[S]+Amax,2*[S]/Km,2+[S] ). The former equation describes one type of the active sites. […] The assumption was based on the presence of the two enzymes, OGDH and OADH, in the employed preparations.
The kinetic data were also analyzed by linear regression, using the known methods of the linearization of the Michaelis-Menten equation in the Lineweaver-Burk ( 1/a=1/Amax(1+Km/[S]) ) and Eadie-Hofstee ( a=Amax−Kmv/[S] ) coordinates. Due to the several orders of magnitude difference in the values of Km,1 and Km,2, the linear regression required separate analysis of the dependencies in the intervals of the low and high concentrations of 2-oxoadipate. The Km and Amax values obtained in independent experiments using the non-linear and linear regression analyses of the experimental data, were averaged and presented as Mean ± Standard Error of Mean.
To determine the inhibition constants (Ki), the effective values of Kmeff and Amaxeff , calculated from the hyperbolic or linear approximations as described above, were plotted against the concentration of the inhibitors ([I]). The linear regression of the equation Kmeff/Amaxeff=Km/Amax(1+[I]/Ki) , (Cornish-Bowden, [1979]) was applied to find the Intercept (Km/Amax) and Slope (Km/(Amax*Ki)) of a dependence. The values of Ki were determined as the ratio of the corresponding Intercepts to the Slopes. In the two-site model, the Ki(1) and Ki(2) were calculated separately from the linear approximations of Km,1eff/Amax,1eff vs. [I] and Km,2eff/Amax,2eff vs. [I] dependences, respectively. The standard errors of Ki were determined from means and standard errors of the Intercepts and the Slopes, using the previously described formula for standard deviation of a fraction (Bunik et al., [1999]). The Ki values obtained from the non-linear and linear regression analyses of the experimental data were averaged and presented as Mean ± Standard Error of Mean.

[3] = test system: recombinant OGDH complex; settings: cited from earlier work
[4] = test system: recombinant human OADH; set-up: method as in Nemeria et al., 2017, 2018; settings: ref Nemeria et al., 2017, 2018, cited from earlier work
[5] = low [OA] 0–0.05 mM, Michaelis-Menten, read-out: Ki, MM
[6] = low [OA], Eadie-Hofstee, read-out: Ki, EH
[7] = low [OA], Lineweaver-Burk, read-out: Ki, LB
[8] = low [OA], average, read-out: Ki, Average

Row | difference in the affinities of the two types of the sites to OA ([2]; hepatic preparation, low- vs high-affinity sites) [fold] | SMILES | interaction with other enzymes [1] | Ki [2, 5] | Ki [2, 6] [nM] | Ki [2, 7] [nM] | Ki [2, 8] [nM] | Amax ([2]; [I] 0.5 µM) | Amax ([2]; [I] 2 µM) | Amax ([2]; [I] 10 µM) | Amax ([2]; [I] 50 µM) | Amax ([2]; [I] 200 µM) | Amax ([2]; [I] 1000 µM) | Km ([3]; OA as alternative substrate, ref Nemeria et al., 2017) [µM] | kcat OA of recombinant OGDH complex ([3]; ref Nemeria et al., 2017, 2018) [s⁻¹] | kcat OA of recombinant OADH complex [4] [s⁻¹] | Km ([4]; read-out: Km OA of recombinant human OADH) [µM] | Amax ([2]; [I] 5000 µM)
1 |  | O=C(O)CCCCC(=O)P(=O)(O)O [AP, adipoyl phosphonate] | no significant interaction | 50 nM and 44 nM | 44 ± 111 | 56 ± 118 | 48 ± 4 | 0.0014 ± 0.0001 µmol/min per mg of protein | 0.0056 ± 0.0022 µmol/min per mg of protein | 0.0088 ± 0.0041 µmol/min per mg of protein |  |  |  |  |  |  |  | 
2 |  | O=C(O)CCCC(=O)P(=O)(O)O [GP, glutaryl phosphonate] |  | 2400 ± 300 nM | 1900 ± 300 | 1600 ± 200 | 2000 ± 200 |  | 0.0026 ± 0.0002 µmol/min per mg of protein | 0.0018 ± 0.0001 µmol/min per mg of protein | 0.0011 ± 0.00005 µmol/min per mg of protein | 0.0016 ± 0.0001 µmol/min per mg of protein | 0.0013 ± 0.0001 µmol/min per mg of protein |  |  |  |  | 
3 | 60 | O=C(O)CCCC(=O)C(=O)O [OA, 2-oxoadipate] |  |  |  |  |  |  |  |  |  |  |  | 520 | 2.7 | 6.0 | 15 | 
4 |  | O=C(O)CCC(=O)P(=O)(O)O [SP, succinyl phosphonate] | no significant interaction | 128000 ± 9000 nM | 110000 ± 7000 | 109000 ± 9000 | 116000 ± 6000 |  |  | 0.0017 ± 0.0001 µmol/min per mg of protein | 0.0016 ± 0.0001 µmol/min per mg of protein | 0.0016 ± 0.00005 µmol/min per mg of protein | 0.0014 ± 0.0001 µmol/min per mg of protein |  |  |  |  | 0.0010 ± 0.00003 µmol/min per mg of protein

— article PMC7835950 (Frontiers in Chemistry, 2021)
